# Experimental data published in patent US20250052985A1, “SYSTEM AND METHOD FOR QUANTITATIVE PHASE IMAGING FOR MULTI-PARAMETRIC SCREENING OF TUMOR THERAPY RESPONSE” (UNIVERSITY OF UTAH RESEARCH FOUNDATION, priority 2023, published 2025).
# pEC50: −log10 of the molar value. Several values for one entry are separate records, joined by “and”; a condition that tells them apart may be missing. Equal entries are not always repeated.
# Legend:
# [1] = system: BT-474 cells; experiment: cells; conditions: for Max Asymptote / Min Asymptote: BT-474, 4-parameter Hill fit of mean SGR vs concentration, one line per replicate
# How it was run: (§1)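 EC50 comes from 4-parameter Hill fits of average specific growth rate (mass accumulation) versus dose; a response is called only when the fit beats a flat line by F-test at p<0.01. Growth was tracked by differential phase contrast QPI for 24 or 72 h post-equilibration, followed by CTG ATP readout.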
# [2] = system: MCF-7 cells; experiment: cells; conditions: for Max Asymptote / Min Asymptote: MCF-7, 4-parameter Hill fit of mean SGR vs concentration, one line per replicate; for Hill Slope: MCF-7, Hill fit
# How it was run: as §1
# [3] = system: MDA-MB-231 cells; experiment: CellTiter-Glo (CTG) ATP viability assay, MDA-MB-231; format: cell-based; conditions: for Min Asymptote: MDA-MB-231, Hill fit of luminescence normalized to solvent control, one line per replicate; for EC50: Homo sapiens, read-out: log10(EC50) (converted)
# Protocol: (§2) CTG (e.g., read by the CTG reader 115) is a cell viability assay that quantifies the amount of ATP present at the end of an experiment as an indicator of the number of live cells. The electronic controller 155 measures ATP content in each condition as a readout by a luminescent signal, which is normalized by the luminescence of the control (e.g., a control well) to determine cell viability relative to on-plate controls. In some embodiments, the CTG assay is performed by first removing 100 μL of media from each well on the well-plate 105, which is then replaced with an equal amount of CellTiter-Glo reagent (e.g., Promega, G7572). Assayed plates may be shaken at 500 RPM for 20 minutes and allowed to rest for 10 minutes. In some instances, 100 μL of volume from each well is transferred to a white 96-well plate (e.g., Perkin Elmer, 6005680). The electronic controller 155 collects luminescence data from each well using an Envision plate reader (e.g., Perkin Elmer) and normalized against the solvent control to measure ATP content. The electronic controller 155 fits a 4-parameter hill curve to the dose response to determine the EC50 and depth of response.
# [4] = system: MCF-7 cells; experiment: CellTiter-Glo (CTG) ATP viability assay, MCF-7; format: cell-based; conditions: for EC50: Homo sapiens
# Protocol: as §2
# [5] = system: MDA-MB-231 cells; experiment: Quantitative phase imaging (QPI) growth response, MDA-MB-231; format: cell-based; parameters: DoR QPI: scale not given here; ToR 20 μM: unit not given here; conditions: for Max Asymptote / Min Asymptote: MDA-MB-231, 4-parameter Hill fit of mean SGR vs concentration, one line per replicate
# How it was run: as §1
structure (smiles),measurement,setting,value
CC(=O)O[C@@]12CO[C@@H]1C[C@H](O)[C@@]1(C)C(=O)[C@H](O)C3=C(C)[C@@H](OC(=O)[C@H](O)[C@@H](NC(=O)OC(C)(C)C)c4ccccc4)C[C@@](O)([C@@H](OC(=O)c4ccccc4)[C@H]21)C3(C)C [Docetaxel],Max Asymptote,[1]; 24 h QPI,0.009874 and 0.01051
same,Min Asymptote,[1]; 24 h QPI,0.00518 and 0.00803
same,Hill Slope,"[1]; 24 h QPI, BT-474, Hill fit",0.2745 and 0.5361
same,Max Asymptote,[1]; 72 h QPI,0.00164 and 0.002702
same,Min Asymptote,[1]; 72 h QPI,0.009387 and 0.007464
same,Hill Slope,"[1]; 72 h QPI, BT-474, Hill fit",3.8183 and 2.5139
same,log10(EC50),"[1]; 72 h QPI, BT-474, Hill fit, EC50 in μM per Table 1",2.1891
same,growth rate and heterogeneity over time,"[1]; BT-474, 0.016 μM",decreased growth rate and increased heterogeneity
same,growth rate and heterogeneity over time,"[1]; BT-474, 0.4 μM",reduced growth rate and increased heterogeneity
same,growth rate and heterogeneity over time,"[1]; BT-474, 2 μM",population heterogeneity is increased and growth rate decreases
same,growth rate and heterogeneity over time,"[1]; BT-474, 20 μM","decreases, while the heterogeneity for both populations increases"
same,change of population spread (SD) of SGR,"[1]; BT-474, 20 μM, with significant decrease in mean response",no significant change to the spread
same,response of growth rate and heterogeneity to treatment,"[1]; BT-474, FIG. 5E, 22, 23",both reduced growth rate and slightly increased heterogeneity
same,DoR QPI,"[1]; BT-474 cell line, depth of response, QPI",0.8
same,ToR 20 μM,"[1]; BT-474 cell line, time of response at 20 μM",10.9
same,EC50,"[1]; Homo sapiens, BT-474, 72 h, read-out: log10(EC50), 72 h QPI, BT-474, Hill fit (converted), EC50 in μM per Table 1",0.00383 µM
same,Max Asymptote,[2]; 24 h QPI,0.02457 and 0.02891 and 0.02213
same,Min Asymptote,[2]; 24 h QPI,0.01057 and 0.01168 and 0.008144
same,Hill Slope,[2]; 24 h QPI,1.6196 and 1.4393 and 1.4829
same,Max Asymptote,[2]; 72 h QPI,0.00408 and 0.005816 and 0.004488
same,Min Asymptote,[2]; 72 h QPI,0.021 and 0.02567 and 0.0188
same,Hill Slope,[2]; 72 h QPI,1.6038 and 0.9248 and 1.3228
same,pEC50,"[2]; Homo sapiens, MCF7, read-out: EC50, QPI, MCF-7 cell line, QPI growth rate",9.04
same,DoR QPI,"[2]; MCF-7 cell line, depth of response, QPI",0.8
same,ToR 20 μM,"[2]; MCF-7 cell line, time of response at 20 μM",5.9
same,Hill Slope,"[3]; 24 h CTG, MDA-MB-231, Hill fit",7.175
same,Min Asymptote,[3]; 24 h CTG,0.8491
same,log10(EC50),"[3]; 72 h CTG, MDA-MB-231, Hill fit",2.342
same,Min Asymptote,[3]; 72 h CTG,0.3348 and 0.2561
same,EC50,"[3]; MDA-MB-231, 24 h, 24 h CTG, MDA-MB-231, Hill fit",13.7 nM
same,EC50,"[3]; MDA-MB-231, 72 h, 72 h CTG, MDA-MB-231, Hill fit",3.96 nM
same,DoR CTG,"[3]; MDA-MB-231 cell line, depth of response, CellTiter-Glo",0.7
same,Hill Slope,"[4]; 72 h CTG, MCF-7, Hill fit",5.079 and 4.965
same,log10(EC50),"[4]; 72 h CTG, MCF-7, Hill fit",3.291
same,Min Asymptote,"[4]; 72 h CTG, MCF-7, Hill fit of luminescence normalized to solvent control, one line per replicate",0.368 (2×) and 0.4065
same,EC50,"[4]; MCF7, 72 h, 72 h CTG, MCF-7, Hill fit, read-out: log10(EC50) (converted)",0.455 nM
same,EC50,"[4]; MCF7, MCF-7 cell line, CellTiter-Glo, read-out: EC50, CTG (converted)",0.501 nM
same,DoR CTG,"[4]; MCF-7 cell line, depth of response, CellTiter-Glo",0.6
same,Max Asymptote,[5]; 24 h QPI,0.03347 and 0.03066 and 0.02364
same,Min Asymptote,[5]; 24 h QPI,0.01673 and 0.01578 and 0.02364
same,Max Asymptote,[5]; 72 h QPI,0.01382 and 0.01017 and 0.02742
same,Min Asymptote,[5]; 72 h QPI,0.04028 and 0.02962 and 0.02742
same,EC50,"[5]; Homo sapiens, MDA-MB-231, MDA-MB-231 cell line, EC50 of the standard deviation, read-out: EC50, SD (converted)",1.11 nM
same,growth rate and heterogeneity over time,[5]; MDA-MB-231,decrease in growth rate and heterogeneity simultaneously
same,growth rate and heterogeneity over time,"[5]; MDA-MB-231, 0.4 μM",decrease in growth rate and heterogeneity simultaneously
same,growth rate and heterogeneity over time,"[5]; MDA-MB-231, 2 μM",decrease in growth rate and heterogeneity simultaneously
same,SGR distribution over 72 h,"[5]; MDA-MB-231, 20 μM",distinctive long tail of non-responders that persists at 72 h
same,growth rate and heterogeneity over time,"[5]; MDA-MB-231, 20 μM",decrease in growth rate and heterogeneity simultaneously
same,growth rate and heterogeneity over time,"[5]; MDA-MB-231, lowest concentrations, FIG. 21 G-H",growth rate decreases over time with little change in heterogeneity
same,DoR QPI,"[5]; MDA-MB-231 cell line, depth of response, QPI",0.7
same,ToR 20 μM,"[5]; MDA-MB-231 cell line, time of response at 20 μM",3.5
